Assay results: patent US12053441B2, “Formulations for improving the delivery of hydrophobic agents” (THE ROYAL INSTITUTION FOR THE ADVANCEMENT OF LEARNING / …, priority 2018, dated 2024)
One block for each molecule: values may come before it.

How the values were obtained:
[1] = Protocol: Solubilization studies. In order to link the surfactant properties of McC1 and its stimulating impact on UQ10 uptake, the solubilization characteristics of McC1 on UQ10 have been determined. First, solubilization test was performed by overnight shaking of a mixture of UQ10 and McC1 in water.
Additional solubilization tests were performed using sonication. Excess amount of UQ10 was mixed with McC1 by sonication for 2 min in water.
Like caspofungin/McC1, surfactin is a cyclic lipopeptide. It is produced from various strains of Bacillus subtilis. Structurally it consists of a peptide chain formed by seven amino acids linked to a β-hydroxyl fatty acid via a lactone bond. It is known for its exceptional surfactant power. […] Then, solubilization test was performed by overnight shaking of a mixture of UQ10 and surfactin in water. The mixture were subjected to brief centrifugation to separate undissolved UQ10 before absorbance of the resultant clear supernatant at 275 nm was measured spectrophotometrically.
Several other surfactants were tested for their ability to solubilize UQ. Briefly, excess amount of UQ10 was mixed with water solution of the tested surfactants using sonication. The resultant suspensions were then filtered through a 0.45 μm syringe filter to remove undissolved UQ10.

Pdss2/Mclk1 DKO cells [2] = experiment: Viability in glucose-free galactose-containing medium (resazurin reduction assay); assay type: cell-based, mouse
Protocol: Tissue culture and viability assays. […] Cell viability was determined by resazurin (Sigma Cat No R7017) reduction assay or crystal violet staining following standard procedures.
(§1) The resazurin cell viability assay. Briefly, resazurin was added directly to plates at 1/10 the volume of glucose culture medium. Viable cells with active metabolism can reduce resazurin into resorufin which causes a colour change from blue to pink. After a 2 hr incubation, plates were read on a plate reader (Tecan) to record absorbance at 570 nm and 600 nm. The cell viability was scored as a percentage relative to the signal from untreated glucose-grown wells. Consequently, each screened compound may be described by its effect (no, partial or full rescue) on survival of the KO cells in galactose medium.
The screen also uses cells lacking UQ biosynthesis (e.g., DKO cells) and its protocol is essentially the same as the galactose-only screen except that in step 2, a minimal amount of UQ10 is added into the galactose screening media at a concentration at which the added UQ10 is insufficient by itself to support survival.

Pdss2/Mclk1 DKO cells [3] = experiment: Oxygen consumption rate (OCR) by Seahorse XF analyzer; assay type: cell-based, mouse
Protocol: Measurement of oxygen consumption by Seaborse XF analyzer. Cells were seeded in XF v7 24-well plates (Seahorse Bioscience) at ˜40,000 cells/well for 24 hr. Prior to the measurements, cell medium was replaced with Seahorse XF base medium supplemented with 5.5 mM glucose (Sigma Cat No G8769), 2 mM Glutamax (Thermo Fisher Cat No 35050061) and 1 mM sodium pyruvate and allowed to equilibrate for 1 hour at 37° C. Oxygen consumption was measured first under baseline condition, followed by subsequent addition of 1 μg/ml oligomycin (Sigma Cat No 04876), 0.8 μM FCCP (Sigma Cat No C2920) and a combination of 1 μM rotenone (Sigma Cat No R8875) and 5 μM antimycin A (Sigma Cat No A8674) to assess the basal and maximal mitochondrial respiration rates. Four baseline measurements were recorded before the consecutive addition of the above-mentioned compounds, and three response measurements were taken after the addition of each compound. Results were finally normalized to protein content determined using the Bradford reagent (Bio-Rad). For experiments that involved culturing cells in the presence of lipoprotein-deficient serum (LPDS), cells were grown in culture medium supplemented with LPDS (Sigma S5394) for 1 week before OCR was measured using a Seahorse XF-24 extracellular flux analyzer as described above.

Pdss2/Mclk1 DKO MEFs = experiment: Cellular UQ10 levels (quinone quantification by HPLC); assay type: cell-based, mouse
Protocol: (§2) Quantification of quinones. Quinone content was detected and quantified by HPLC as previously described. […] After centrifugation for 5 min at 8,000×g, the hexane layer was collected and evaporated in a vacuum centrifuge. The quinone residue was then dissolved in ethanol and stored at −20° C. until HPLC analysis. The HPLC analysis was performed on a reverse phase C18 column (25.0×0.46 cm, 5 μm, Highchrom) using UV detection at 275 nm (Beckman System Gold). The mobile phase was methanol/ethanol (70:30 v/v) and isocratic elution was used at a flow rate of 1.8 ml/min.

wildtype MEFs = experiment: as above; assay type: cell-based, mouse
Protocol: as §2

[4] = test system: mitochondria of Pdss2/Mclk1 DKO MEFs; experiment: UQ levels in mitochondrial extracts; assay type: cell-based, mouse; conditions: in combination with UQ10, vs UQ10 alone
Description: (§3) FIGS. 7A to 7D present exemplary data showing that McC1 is capable of increasing the uptake of exogenous UQ into cells and mitochondria. (A) Bar chart showing change of UQ10 levels (as measured in ng/μg of protein) in Pdss2/Mclk1 DKO MEFs after treatment with UQ10, McC1 alone, or UQ10 and McC1 in combination. **p<0.01, ***p<0.001 (one-way ANOVA). (B) Bar charts presenting exemplary data showing changes of UQ levels in wildtype MEFs after treatment with UQ10, McC1 alone, or both in combination. Results are shown as cellular UQ10 levels (as provided in ng/μg of protein, left panel) or UQ9 levels (as provided in ng/μg of protein, right panel) in untreated cells, after treatment with 12.5 μM of McC1, after treatment with 2.5 μM of UQ10, or after co-treatment UQ10 and McC1. Results are mean±SEM (n=3). ****p<0.0001 (one-way ANOVA). (C) Bar chart presenting exemplary data showing changes of UQ10 and UQ9 levels in mitochondrial extracts from wildtype MEFs after treatment with UQ10 alone, or in combination with McC1. Results are shown as UQ9 and UQ10 levels in ng/μg of protein. Results are mean±SEM (n=3). ****p<0.0001 (student's t-test). (D) Bar chart presenting exemplary data showing changes of UQ10 level in mitochondrial extracts from Pdss2/Mclk1 DKO MEFs after treatment with UQ10 alone, or in combination with McC1. Results are shown as UQ10 levels (as provided in ng/μg of protein) in untreated DKO cells, after treatment with 2.5 μM of UQ10, or after co-treatment 2.5 μM of UQ10 and 12.5 μM of McC1. ND: Not Detectable. Results are mean±SEM (n=3). ****p<0.0001 (one-way ANOVA).
as §2

[5] = test system: mitochondria of wild-type MEFs; experiment: UQ levels in mitochondrial extracts; assay type: cell-based, mouse; conditions: in combination with UQ10, vs UQ10 alone
Description: as §3, §2

[6] = Drop collapse assay (surfactant activity); assay type: physicochemical
Protocol: Drop collapse assay is a simple detection method of surface active agents. It relies on the capacity of surfactants to destabilize the liquid droplets on an oily surface. The drop-collapsing ability of McC1 along with other known potent surfactants was characterized. For each, 40 ul of compound solution in water was pipetted onto a hydrophobic Parafilm surface and the diameter of the drops was measured 1 min later using a ruler.

[7] = test system: mouse embryonic fibroblasts (MEFs); experiment: Effect of PTX/McC1 micelles on cell growth and survival (resazurin reduction assay); assay type: cell-based; conditions: 2 to 6 days exposure (FIG. 26B)
Protocol: To evaluate the antiproliferative activity of PTX/McC1 micelles, we seeded exponentially growing mouse embryonic fibroblasts (MEFs) into 48-well plates, exposed them to PTX/McC1 micelles for 2 to 6 days, and determined the treatment effect on cell growth and survival by comparing the numbers of variable cells before and after the treatment.
Cells were allowed to attach overnight and then the PTX/McC1 solution was added into the culture media to obtain the desired concentrations. After 2 days' treatment, the standard resazurin reduction assay was used to evaluate cell growth and survival.

[8] = Solubilization of paclitaxel (PTX) in water; conditions: FIG. 25
Protocol: (A) Bar graph showing a concentration of soluble PTX in 4 mM McC1 solution. After mixing PTX and McC1 solution, the undissolved residues were removed by filtration through a 0.22 μm pore-size membrane. For determination of the PTX concentration, absorbance at 230 nm was measured and compared to a standard curve generated for known concentrations of PTX in pure methanol.

Mclk1 KO cells = experiment: Viability in glucose-free galactose-containing medium (resazurin reduction assay); assay type: cell-based, mouse
Protocol: Tissue culture and viability assays. […] To score growth and viability in galactose, cells were first grown in high glucose DMEM medium to confluency and then switched to glucose-free DMEM media (Thermo Fisher Cat No 26400036) supplemented with 10 mM galactose (Sigma Cat No G5388), 1 mM sodium pyruvate (Thermo Fisher Cat No 11360070), 10% dialyzed FBS (Thermo Fisher Cat No 26400036) and 1% antibiotic-antimycotic solution. Cell viability was determined by resazurin (Sigma Cat No R7017) reduction assay or crystal violet staining following standard procedures.
The screen uses cells lacking UQ (e.g., Mclk1 KO cells) and consists of three key steps: • 1) Day 0: preparation of Mclk1 KO cells in 96-well plates in standard (glucose-containing) culture medium. • 2) Day 1: changing to glucose-free galactose-containing medium and adding compounds to be screened at a concentration of approximately 10 μM. • 3) Day 4 to 6: following 3 to 5 days of incubation with the compound to be screened, media were removed and cell viability was assayed by resazurin reduction assay.
as §1

human Hela cells = experiment: Cellular UQ10 levels (quinone quantification by HPLC); assay type: cell-based; conditions: 1 hour treatment, human cells (FIG. 15)
Description: (A) UQ levels in wild-type MEFs after treatment with McC1-solubilized form of UQ10. (B) UQ levels in human Hela cells after treatment with McC1-solubilized form of UQ10. Results are shown as the levels of UQ9 (white bars, measured as ng/mg of protein) or UQ10 (black bars, measured as ng/mg of protein) in control conditions (+None), after treatment with a formulation containing McC1-solubilized form of UQ10, or in the presence of UQ10 only (+UQ10). For the 2 treatment conditions in A, the final UQ10 concentrations in the media were the same—2.5 μM. In B, the final UQ10 concentrations in the media were 8 μM for the two treatment conditions. Values are mean±SEM (n=2). ****p<0.0001 (one-way ANOVA).
as §2

[9] = Solubilization of curcumin in water; assay type: physicochemical
Description: It is important to note that in contrast with the other surfactants tested, McC1 is non-toxic and can be used in intravenous injection.

[10] = in combination with UQ10, vs UQ10 alone

Compound: CC[C@H](C)C[C@H](C)CCCCCCCCC(=O)N[C@H]1C[C@@H](O)[C@@H](NCCN)NC(=O)[C@@H]2[C@@H](O)CCN2C(=O)[C@H]([C@H](O)CCN)NC(=O)[C@H]([C@H](O)[C@@H](O)c2ccc(O)cc2)NC(=O)[C@@H]2C[C@@H](O)CN2C(=O)[C@H]([C@@H](C)O)NC1=O [McC1, Caspofungin]
increase in aqueous solubility of UQ10 [1]: more than 1,200,000 fold | water solubility of UQ10 in the presence of the compound [1]: greatly increased | survival of DKO cells in galactose medium (Pdss2/Mclk1 DKO cells [2]; compound by itself, no UQ10 added): no effect | survival of DKO cells in galactose medium (Pdss2/Mclk1 DKO cells [2]; in the presence of a minimal amount of UQ10): able to rescue the mutant cells from death | mitochondrial respiration (OCR) compared with UQ10 treatment alone (Pdss2/Mclk1 DKO cells [3]; co-treatment with UQ10): greater increase of mitochondrial respiration | intracellular concentration of UQ (Pdss2/Mclk1 DKO MEFs; compound used alone): no effect | cellular uptake of exogenous UQ10 (Pdss2/Mclk1 DKO MEFs; [10]): increased uptake of exogenous UQ10 into cells | intracellular concentration of UQ (wildtype MEFs; compound used alone): no effect | cellular uptake of exogenous UQ10 (wildtype MEFs; [10]): increased uptake of exogenous UQ10 into cells | uptake of exogenous UQ10 into mitochondria [4]: significantly increased uptake of exogenous UQ10 into mitochondria | uptake of exogenous UQ10 into mitochondria [5]: significantly increased uptake of exogenous UQ10 into mitochondria | surfactant (drop collapse) activity [6]: moderate surfactant activity | effect on cell growth and survival [7]: no observable toxicity

solubility of PTX in water-only control [8]: not soluble in water
Compound: CC(=O)O[C@H]1C(=O)[C@@]2(C)[C@H]([C@H](OC(=O)c3ccccc3)[C@]3(O)C[C@H](OC(=O)[C@H](O)[C@@H](NC(=O)c4ccccc4)c4ccccc4)C(C)=C1C3(C)C)[C@]1(OC(C)=O)CO[C@@H]1C[C@@H]2O [PTX, Paclitaxel]

Compound: COC1=C(OC)C(=O)C(C/C=C(\C)CC/C=C(\C)CC/C=C(\C)CC/C=C(\C)CC/C=C(\C)CC/C=C(\C)CC/C=C(\C)CC/C=C(\C)CC/C=C(\C)CCC=C(C)C)=C(C)C1=O [UQ10, ubiquinone-10]
soluble UQ10 in the water-only control [1]: no detectable soluble UQ10 | rescue from galactose-induced cell death by UQ supplementation (Pdss2/Mclk1 DKO cells [2]; if provided at a sufficient amount): sufficient to rescue them from galactose-induced cell death | survival of Mclk1 KO cells in galactose medium (Mclk1 KO cells; UQ10 0.5 μM (FIG. 3C)): little effect | survival of Mclk1 KO cells in galactose medium (Mclk1 KO cells; UQ10 10 μM (FIG. 3C)): almost full rescue | rates of mitochondrial respiration (Pdss2/Mclk1 DKO cells [3]; UQ10 at sufficient doses, Mclk1 SKO and Pdss2/Mclk1 DKO cells): increases rates of mitochondrial respiration | cellular UQ10 levels (wildtype MEFs; 1 hour treatment, mouse cells (FIG. 15)): no effect on intracellular UQ10 levels | cellular UQ10 levels (human Hela cells): no effect on intracellular UQ10 levels

solubility of free curcumin in water [9]: very low solubility in water
Compound: COc1cc(/C=C/C(=O)CC(=O)/C=C/c2ccc(O)c(OC)c2)ccc1O [curcumin]
